Results: publication PMC10004088, “Myrtinols A–F: New Anti-Inflammatory Peltogynoid Flavonoid Derivatives from the Leaves of Australian Indigenous Plant Backhousia myrtifolia” (Molecules, 2023)

Columns and labels:
Format in all cases: cell-based
[1] = tested on: nitric oxide (NO) production in LPS + IFN-γ activated RAW 264.7 macrophages; experiment: Inhibition of NO production (Griess assay) in LPS + IFN-γ activated RAW 264.7 macrophages; conditions: for IC50: Mus musculus, RAW264.7, 24 hrs, N = 6, mean ± SD; for Anti-inflammatory activity (in words): verbal judgement of Table 3 data
Experimental: (§1) All compounds were assessed for their anti-inflammatory activity by evaluating the inhibition of NO production and TNF-α in LPS plus interferon (IFN)-γ activated RAW 264.7 macrophages. All compounds were also evaluated for their cytotoxicity using the Alamar blue assay (Table 3).
(§2) Cells were grown in 75 cm^2 flasks on Dulbecco’s Modified Eagle Medium (DMEM) containing 10% fetal bovine serum (FBS) that was supplemented with penicillin (100 U/mL), streptomycin (100 μg/mL) and L-glutamine (2 mM). The cell line was maintained in 5% CO2 at 37 °C, with media being replaced every 3–4 days. Once cells had grown to confluence in the culture flask, they were harvested using a rubber policeman, as opposed to using trypsin, which can remove membrane-bound receptors.
(§3) RAW 264.7 cells (1 × 10^6 cells/mL) were seeded in 96 well plates (Corning® Costar®, Sigma, Sydney, Australia) overnight until confluency. When the cells were confluent, each compound was serially diluted from a starting concentration of 100 μg mL^−1 to construct a dose response curve (i.e., 100, 50, 25, 12.5, 6.25, and 3.13 μg mL^−1) and co-incubated with cells for 1 hr prior to the addition of 1 μg mL^−1 LPS and 10 U mL^−1 (1 unit = 0.1 ng/mL) IFN-γ. After activation, the cells were incubated for another 24 hrs at 37 °C. The supernatant was then collected for NO, and TNF-α assays. The cells were subjected to cell viability measurement using the Alamar Blue assay. Non-activated cells (exposed to media only) were used as negative control and activated cells were positive control.
Nitric oxide was determined by the Griess reagent as described in previous studies. Griess reagent was freshly made up of equal volumes of 1% sulfanilamide in 5% phosphoric acid and 0.1% N-1-naphthylethylenediamine dihydrochloride in Milli-Q water. From each well, 50 µL of supernatant was transferred to a fresh 96-well plate and mixed with 50 µL of Griess reagent. The production of nitrite as an indicator of NO was measured at 540 nm in a POLARstar Omega microplate reader (BMG Labtech, Mornington, Australia).
(§4) Data analysis was carried using GraphPad Prism 9.3.1. Calculations were performed using MS-Excel version 16.61.1. IC50 values were obtained by using the sigmoidal dose–response function in GraphPad Prism. The results were expressed as mean ± standard deviation (SD).

[2] = tested on: TNF-α production in LPS + IFN-γ activated RAW 264.7 macrophages; experiment: Inhibition of TNF-α production (ELISA) in LPS + IFN-γ activated RAW 264.7 macrophages; conditions: Mus musculus, RAW264.7, 24 hrs, N = 6, mean ± SD
Experimental: as §1, §2, §3
The stored supernatants were analyzed for TNF-α synthesis using a commercial ELISA kit (Peprotech, Brisbane, Australia) according to the manufacturer’s instructions. The absorbance was measured at 410 nm. The concentrations of TNF-α in the experimental samples were extrapolated from a standard curve.
as §4

RAW 264.7 macrophages = experiment: Cell viability / cytotoxicity by the Alamar Blue assay; conditions: Mus musculus, RAW264.7, 24 h, LPS + IFN-γ activated RAW 264.7 macrophages, N = 6, mean ± SD
Experimental: as §1, §2, §3
After various treatments and the stimulation by LPS and IFN-γ overnight, 100 µL of Alamar Blue solution [10% Alamar Blue (resazurin) in DMEM media] was added to cells and incubated at 37 °C for 2 hrs. The fluorescence intensity was measured with excitation at 530 nm and emission at 590 nm using a microplate reader. The results were expressed as a percentage of the intensity to that of control cells (non-activated cells).
as §4

| Compound | IC50 [1] [µg/mL] | IC50 [2] [µg/mL] | Anti-inflammatory activity (in words) [1] | CC50 (RAW 264.7 macrophages) [µg/mL] |
| --- | --- | --- | --- | --- |
| COc1ccc([C@@H]2Oc3c(O)cc(CCCO)cc3[C@H]2CO)cc1OC [Compound 7, 4-O-methylcedrusin] | 44.1 ± 13.4 | > 100 | did not show good anti-inflammatory activity | > 100 |
| COc1cc2c(c(O)c1C)[C@@H](O)[C@@H]1OCc3c(cc(OC)c(OC)c3O)[C@H]1O2 [Compound 3, Myrtinol C] | > 100 | > 100 | inactive | > 100 |
| COc1cc2oc(-c3ccc(O)cc3)cc(=O)c2c(O)c1C [Compound 9, 8-demethylsideroxylin] | 8.3 ± 0.96 | 46.8 ± 5.87 | – | 20.4 |
| COc1cc([C@@H]2Oc3c(OC)cc(CCCO)cc3[C@H]2CO)ccc1O [Compound 8, 7-O-methylcedrusin] | > 100 | > 100 | did not show good anti-inflammatory activity | > 100 |
| COc1cc2c(c(OC)c1C)C[C@@H]1OCc3c(cc(OC)c(OC)c3O)[C@H]1O2 [Compound 6, Myrtinol F] | 12.6 ± 0.26 | 30.6 ± 5.01 | – | 19.8 ± 0.86 |
| COc1cc(/C=C/C(=O)CC(=O)/C=C/c2ccc(O)c(OC)c2)ccc1O [curcumin, reference compound] | 4.64 ± 1.5 | 4.19 ± 2.6 | – | 10.9 ± 1.3 |

More lines, main results first:

| IC50 [1] [µg/mL] | IC50 [2] [µg/mL] | Compound | Anti-inflammatory activity (in words) [1] | CC50 (RAW 264.7 macrophages) [µg/mL] |
| --- | --- | --- | --- | --- |
| 16.2 ± 0.77 | 52.4 ± 7.47 | COc1cc2c(c(O)c1OC)CO[C@H]1Cc3c(cc(O)c(C)c3OC)O[C@H]21 [Compound 2, Myrtinol B] | – | 37.2 ± 2.09 |
| 29.3 ± 10.9 | 91.3 ± 7.14 | COc1cc2c(c(O)c1C)C[C@@H]1OCc3c(cc(OC)c(OC)c3O)[C@H]1O2 [Compound 4, Myrtinol D] | – | 71.5 ± 14.7 |
| 11.5 ± 0.14 | 24.5 ± 0.28 | COc1c(C)c(O)cc2c1C[C@@H]1OCc3c(cc4c(c3O)OCO4)[C@H]1O2 [Compound 1, Myrtinol A] | – | 18.8 ± 0.39 |
| 8.51 ± 0.47 | 17.2 ± 0.22 | COc1cc2c(c(OC)c1C)C[C@@H]1OCc3c(cc4c(c3O)OCO4)[C@H]1O2 [Compound 5, Myrtinol E] | – | 15.5 ± 0.42 |
